# Where two headings read alike, the source gives them in different places.
# Tests used:
# [1] = system: C. difficile strains used in this study; experiment: MIC by broth microdilution, range over the strains used in this study; type: cell-based; details: Clostridioides difficile, read-out: MICs
# Method: (§1) Susceptibility testing: The minimum inhibitory concentration (MIC), defined as the lowest concentration of an antimicrobial that will inhibit the visible growth of a microorganism, was determined for all isolates. […] Microwell plates containing omadacycline and BHI were used on the same day as their creation, and all media were reduced for 24 h prior. Media used to inoculate plates were created by suspending 24-h colonies in BHI to a McFarland standard of 0.5, which was added to each well, sufficient to about 1×10^6 CFU/ml. A total volume of […] was used, and plates were read after 24 h of incubation in the anaerobic hood. The lowest concentration without growth was determined to be the MIC. In accordance with CLSI recommendations, C. difficile ATCC 700057 was used as a control for each plate.
# [2] = system: C. difficile VPI 10463 (ATCC 43255); experiment: MIC by broth microdilution, VPI 10463; type: cell-based; details: Clostridioides difficile
# Method: as §1
# [3] = cited from earlier work; for Fecal concentration: clinical dosing, oral
# [4] = system: C. difficile ATCC 700057 (VPI 11186); experiment: MIC by broth microdilution, control strain ATCC 700057; type: cell-based, Clostridioides difficile
# Method: as §1
# [5] = system: C. difficile VPI 10463; experiment: CDI murine model, non-severe model; type: in vivo, C57BL/6 mice
# [6] = system: C. difficile 4118 (ATCC 1870); experiment: MIC by broth microdilution, ATCC 1870; type: cell-based; details: Clostridioides difficile
# Method: as §1
# [7] = system: C. difficile 630 (ATCC BAA-1382); experiment: MIC by broth microdilution, 630; type: cell-based; details: Clostridioides difficile
# Method: as §1
# [8] = system: C. difficile VPI 10463; experiment: CDI murine model, severe model; type: in vivo, C57BL/6 mice
# [9] = system: C. difficile ATCC 1870 vegetative cells; experiment: Time-kill curves, T-CFU versus S-CFU, ATCC 1870; type: cell-based, Clostridioides difficile
# [10] = system: C. difficile ICCD 0715 (clinical strain); experiment: MIC by broth microdilution, ICCD 0715; type: cell-based; details: Clostridioides difficile, 24 h
# Method: as §1
# [11] = system: C. difficile spores (four strains tested); experiment: Time-kill curves, S-CFU, four strains tested; type: cell-based, Clostridioides difficile
# [12] = system: C. difficile spores (all strains); experiment: Spore washing and germination, all strains; details: 0.5 mg/ml docusate exposure
# [13] = ATCC 700057 (VPI 11186), R038, reduced BHI, 24 h, highest of replicates
# [14] = non-severe model, environmental contamination
structure (smiles),measurement,setting,value
"CN[C@H](CC(C)C)C(=O)N[C@H]1C(=O)N[C@@H](CC(N)=O)C(=O)N[C@H]2C(=O)N[C@H]3C(=O)N[C@H](C(=O)N[C@H](C(=O)O)c4cc(O)cc(O)c4-c4cc3ccc4O)[C@H](O)c3ccc(c(Cl)c3)Oc3cc2cc(c3O[C@@H]2O[C@H](CO)[C@@H](O)[C@H](O)[C@H]2O[C@H]2C[C@](C)(N)[C@H](O)[C@H](C)O2)Oc2ccc(cc2Cl)[C@H]1O [Vancomycin, vancomycin]",MIC,[1],1 to 4 µg/mL
same,MIC,"[2]; ATCC43255, 24 h",1 µg/mL
same,Fecal concentration,[3],"2,000 mg/liter"
same,MIC,[4]; [13],2 µg/mL
same,MIC,"[4]; Clostridioides difficile, ATCC700057, 24 h",2 µg/mL
same,Clinical scoring and weight loss (disease),"[5]; mouse, in vivo",more disease
same,Final survival,"[5]; mouse, in vivo",60%
same,"Final survival, survivors/total mice","[5]; mouse, in vivo",6/10
same,"Mice positive for C. difficile spores (spore shedding), day 15","[5]; mouse, in vivo",100%
same,Mice succumbed to rCDI,"[5]; mouse, in vivo",20%
same,Mortality,"[5]; mouse, in vivo",40%
same,"Positive cage swab rate, day 10","[5]; mouse, in vivo",8.3%
same,"Positive cage swabs, day 13","[5]; mouse, in vivo",25%
same,"Toxin amounts, day 10 and 13","[5]; mouse, in vivo",higher
same,MIC,"[6]; ATCC1870, 24 h",2 µg/mL
same,MIC,"[7]; ATCCBAA1382, 24 h",4 µg/mL
same,"Median toxin A and B production, day 2","[8]; mouse, in vivo",significantly higher
same,"Toxin amounts, day 1","[8]; mouse, in vivo",similar
same,Weight loss and clinical scoring,"[8]; mouse, in vivo",higher
same,Day 15 survival,"[8]; mouse, in vivo, po",13.3%
same,Killing of vegetative cells (T-CFU equaled S-CFU),[9],effective at killing vegetative cells
same,MIC,[10],4 µg/mL
same,Effect on S-CFU,[11],did not affect S-CFU
"CN(C)c1cc(CNCC(C)(C)C)c(O)c2c1C[C@H]1C[C@H]3[C@H](N(C)C)C(O)=C(C(N)=O)C(=O)[C@@]3(O)C(O)=C1C2=O [Omadacycline, omadacycline]",MIC,[1]; range for the strains used in this study,0.031 to 0.125 µg/mL
same,MIC,"[2]; ATCC43255, VP1 10463 (ATCC 43255), R087, reduced BHI, 24 h, read-out: MIC",0.063 µg/mL
same,Fecal concentration,[3],approximately 430 mg/liter
same,Fecal excretion,[3]; in vivo,81%
same,MIC,[4]; [13],0.125 µg/mL
same,MIC,"[4]; Clostridioides difficile, ATCC700057, ATCC 700057 (VPI 11186), R038, reduced BHI, 24 h, highest of replicates, read-out: MIC",0.125 µg/mL
same,Mice succumbed to rCDI,[5]; by day 10,20%
same,"Final survival, survivors/total mice","[5]; mouse, in vivo",6/10
same,Mortality,"[5]; mouse, in vivo",40%
same,"Mice positive for C. difficile spores (spore shedding), day 15",[5]; non-severe model,60%
same,Final survival,"[5]; non-severe model, after clindamycin-induced relapse (days 10-12)",60%
same,"Positive cage swab rate, day 10",[5]; [14],8.3%
same,"Positive cage swabs, day 13",[5]; [14],no positive swabs
same,MIC,"[6]; ATCC1870, 4118 (ATCC 1870), R027, reduced BHI, 24 h, read-out: MIC",0.031 µg/mL
same,MIC,"[7]; ATCCBAA1382, 630 (ATCC BAA-1382), R012, reduced BHI, 24 h, read-out: MIC",0.125 µg/mL
same,"Toxin amounts, day 1","[8]; mouse, in vivo",similar
same,Day 15 survival,"[8]; severe model, treatment started 30 hours after spore gavage, once daily until day 5, OMC 0.25 mg, VAN 1.5 mg oral gavage",60%
same,Killing of vegetative cells (T-CFU equaled S-CFU),"[9]; ATCC 1870, 24 to 96 h, with or without germinants",effective at killing vegetative cells
same,MIC,"[10]; ICCD 0715 (clinical strain), R027, reduced BHI, read-out: MIC",0.031 µg/mL
same,Effect on S-CFU,"[11]; antibiotic in BHI without germinants, throughout the treatment period (96 h), four strains",did not affect S-CFU
CCCCC(CC)COC(=O)CC(C(=O)OCC(CC)CCCC)S(=O)(=O)O (centres unmarked) [docusate],Percent germination compared to all other treatments,[12],highest percent germination
